According to patent US9540646B2, “Cellular targets for HIV infection” (priority 2012, dated 2017):
Entries after “also recorded” stand apart in the source; their conditions may differ.

Key:
[1] = system: HIV; assay: HIV replication in macrophage cultures, strain not named; format: cell-based; conditions: macrophage cultures; BBG concentration and strain not printed at the place
Protocol: (§1) HIV replication: After 6 days in culture, macrophages in 48-well plates at a density of 10^5 cells per well were inoculated with 2-20 ng/ml HIVADA, 2 ng/ml HIVYU-2, or 0.2 ng/ml HIVBaL for 24 hours in the presence or absence of purinergic receptor inhibitors. 5 wells were inoculated per condition. After 24 hours, cells were washed with PBS and then cultured with media. Supernatants were collected and medium was changed every 24 hours until 7 days post inoculation (d.p.i.). When the inhibitors oATP, A-740003, MRS 2179, NF 279, BBG, or suramin, were used, they were added when the medium was changed every 24 hours. Viral replication was analyzed by HIV p24 ELISA (Advanced Bioscience Laboratories, Kensington, Md.) according to the manufacturer's instructions

[2] = system: Macrophages; assay: Cell viability of macrophages, live/dead assay; format: cell-based; conditions: 100 μM, 24 hours
Description: Cells were imaged using a Zeiss AxioObserver.D1 with an LD Plan-Neofluar 20×/0.4 air objective lens. Images were collected at room temperature through a Zeiss AxioCam MRm camera using Axiovision software.

[3] = cited from earlier work
[4] = system: HIVADA; assay: HIV replication in primary human macrophages, HIV p24 ELISA; format: cell-based, Human immunodeficiency virus-1 (HIV)
Description: (§2) Monocyte isolation and macrophage culture: Human monocytes were isolated from leukopaks obtained from the New York Blood Center. Peripheral blood mononuclear cells (PBMCs) were isolated by differential centrifugation using a Ficoll gradient (GE Healthcare, Piscataway, N.J.) and CD14 positive cells were isolated from PBMCs using CD14 monoclonal antibodies that were then bound by magnetic nanoparticles and separated using a magnetic field (Stem Cell Technologies, Vancouver, BC, Canada). Isolated CD14 positive cells were cultured adherently for 6 days in the presence of 10 ng/ml macrophage-colony stimulating factor (PeproTech, Rocky Hill, N.J.) in RPMI 1640 with 10% FBS, 5% human AB serum, 1% P/S, and 10 mM HEPES to differentiate the cells into macrophages.
as §1

[5] = system: HIVBaL; assay: as above; format: cell-based, Human immunodeficiency virus-1 (HIV); conditions: 100 μM oATP; according to d.p.i.; N=3
Description: as §2, §1

[6] = system: HIVYU-2; assay: as above; format: cell-based, Human immunodeficiency virus-1 (HIV); conditions: 100 μM oATP; every d.p.i.; N=3
Description: as §2, §1

[7] = system: HIVADA; assay: Immunofluorescence, percentage of HIV p24 positive macrophages; format: cell-based, Human immunodeficiency virus-1 (HIV); conditions: 100 μM oATP, 7 d.p.i.
Protocol: Immunofluorescence: After 6 days in culture, macrophages cultured in 35 mm MatTek dishes at a density of 10^6 cells per dish were inoculated with 20 ng/ml HIVADA for 24 hours in the presence or absence of oATP. Two MatTek dishes were inoculated per condition. After 24 hours, cells were washed with PBS and cultured with media. Fresh oATP was added and the medium was changed every 24 hours until 7 d.p.i. Cells were then fixed using cold 70% ethanol for 20 minutes. Cells were washed with PBS and blocked using 0.9% fish gelatin, 50 μM EDTA. 1% horse serum, and 1% globulin-free albumin. The following primary antibodies were used: mouse monoclonal HIV p24 antibody from Abeam at a 1:50 dilution (Cambridge, Mass.) or mouse myeloma IgG1 (Sigma) as a negative control. Secondary antibody staining was with anti-mouse IgG F(ab)′2 fragment conjugated to FITC (Sigma). Actin was stained using Texas Red-X conjugated to phalloidin (Invitrogen, Eugene, Oreg.). ProLong Gold antifade reagent containing DAPI was added to all cells to stain for nuclei. Cells were imaged using a Zeiss AxioObserver.D1 with an LD Plan-Neofluar 20×/0.4 air objective lens. […] Images for 15 fields per condition were analyzed and percentage of p24 positive cells determined by counting number of nuclei in cells with green cytoplasmic staining.

[8] = system: β-lactamase containing HIVBaL; assay: HIV Entry Assay (β-lactamase / CCF2-AM) in primary human macrophages; format: cell-based, Human immunodeficiency virus-1 (HIV); conditions: 100 μM; 4 hours; MOI 0.001-0.01; oATP N=5, others N=3
Protocol: HIV Entry Assay: Primary human macrophages were cultured in black 96-well plates with a clear bottom (Corning Inc., Corning, N.Y.) at a density of 43,000 cells per well. After 7-8 days in culture, cells were inoculated with β-lactamase containing HIVBaL at a multiplicity of infection (MOI) of 0.01, 0.005, or 0.001 in the presence or absence of the purinergic receptor inhibitors oATP, NF 279, A-740003, or MRS 2179 for 4 hours. Beta-lactamase containing HIVBaL was generated as described previously (27). Briefly, HEK-293T cells were transfected using calcium phosphate with two plasmids, one containing the HIVBaL genome, pWT/BaL (NIH repository), the other containing β-lactamase fused to REV vpr, pMM310 (NIH repository). Cells were transfected for 16 hours and then supernatant was collected 24 and 48 hours following transfection. […] Viral stocks were generated by sucrose gradient purification of the transfection supernatants.
Alter viral inoculation of primary human macrophages, cells were washed with phenol red-free DMEM (Gibco) then loaded with CCF2-AM for 6 hours at room temperature using the GeneBLAzer In Vivo Detection Kit (Invitrogen, Carlsbad, Calif.). CCF2-AM fluoresces green due to an internal fluorescence resonance energy transfer, but when cleaved by β-lactamase, this interaction is lost and the molecule fluoresces blue. Cells were imaged using an Olympus IX70 with a Plan 10×/0.25 air objective lens. Images were collected at room temperature through an Olympus E-620LS camera attached to the microscope through an OM adapter MF-1. Images were collected directly onto a memory card and there was no image processing following image collection. Images were collected for 8 fields in 4 separate wells per condition and percentage of cells positive for viral entry was determined by counting the number of blue cells (cells that virus had entered) as compared to the total number of blue and green cells.

[9] = system: purinergic receptors; conditions: in vivo mouse model; reference 99; cited from earlier work
[10] = system: HIVADA; assay: HIV replication in CD4+ T lymphocytes, HIV-p24 ELISA; format: cell-based, Human immunodeficiency virus-1 (HIV); conditions: supernatants each day for 7 days, 10Panx1 200 μM, scrPanx1 200 μM, siRNA 10 nM
Protocol: (§3) HIV-infection and quantification of replication. Cell-free viral inocula were obtained from the National Institutes of Health AIDS Research and Reference Reagent Program. Three isolates were used: HIVADA, and HIVBal, two R5 isolates and HIVLAI, an X4 isolate, PBMCs and purified CD4+ T lymphocytes were isolated and activated with phytohemagglutinin (PHA; 5 μg/ml) plus interleukin (IL-2; 5%) in RPMI 1640 for 48 h in polypropylene tubes at a density of 2×10^6 […] PBMCs and CD4+ T lymphocytes were then infected by incubation for 24 h with viral stocks of HIVADA (20 ng p24/ml/1×10^6 cells), HIVLAI (20 ng p24/ml/1×10^6 cells) or HIVBal (0.001 MOI), washed thoroughly, resuspended in fresh medium, and maintained in polypropylene tubes. Uninfected control cells were activated with PHA plus IL-2 for 48 h, washed, and maintained in polypropylene tubes in fresh media without any virus. To determine the levels of HIV infection, the amount of HIV-p24 released into the medium was determined by ELISA (PerkinElmer, Boston, Mass.)

[11] = biological target: T1, Panx1 hemichannels (Homo sapiens, UniProt Q96RD7); assay: HIV-induced ethidium (Etd) dye uptake, time lapse fluorescence imaging, in PBMCs and CD4+ T lymphocytes; format: cell-based; parameters: endogenous in cells; host or cells: primary human PBMCs and purified CD4+ T lymphocytes from leukopacks (New York Blood Center); conditions: PBMCs exposed to HIVADA; CD4+ T lymphocytes exposed to HIVADA, HIVBal or HIVLAI; 5 min and 72 h; Prob 500 μM, 10Panx1 200 μM, scrPanx1 200 μM, La3+ 200 μM, Cx43E2 1:500, siRNA 10 nM
Protocol: Isolation of human PBMCs and CD4+ T lymphocytes. Anticoagulated blood was obtained from leukopacks obtained from the New York Blood Center as described before (16). PBMCs were isolated by under-layering with Ficoll-Paque (Amersham Bioscience, Uppsala, Sweden) according to the procedure described by the manufacturer. Purified PBMC used in these studies were ˜10% monocytes and ˜90% lymphocytes and other hematopoietic cells, as determined by incubation with premixed human CD45 and CD14 monoclonal antibodies conjugated to FITC and PE, respectively (1:50, Caltag Laboratories, Burlingame, Calif.), followed by fluorescence-activated cell sorter analysis (FACS) as we previously described (17). To obtain a pure population of CD4+ T lymphocytes, monocytes were removed from PBMCs by using CD14 coupled magnetic beads and subsequently CD4+ T lymphocytes were isolated with CD4 coupled magnetic beads (Stem Cell Technologies, Vancouver, BC, Canada).
as §3
(§4) Dye uptake and time lapse fluorescence imaging. To characterize the functional state of Panx1 hemichannels, dye uptake experiments using ethidium (Etd) bromide were performed as previously described (18, 19). Cells were washed twice in Hank's balanced salt solution and then exposed to Locke's solution (containing: 154 mM NaCl, 5.4 mM KCl, 2.3 mM CaCl2, 5 mM HEPES and pH 7.4) with 5 μM Etd and time lapse microscopy was performed. Phase-contrast and fluorescence microscopy with time-lapse imaging were used to record cell appearance and fluorescence intensity changes in each condition. Fluorescence was recorded every 30 s. The NIH ImageJ program was used for off-line image analysis and fluorescence quantification. For data representation and calculation of Etd uptake slopes, the average of two independent background fluorescence intensity measurements (FB, expressed as arbitrary units, AU) was subtracted from fluorescence intensity′ in each cell (F1). Results of this calculation (F1-FB), for at least 20 cells, were averaged and plotted against time (expressed in minutes). Slopes were calculated using Microsoft Excel software and expressed as AU/min. Microscope and camera settings remained the same in all experiments. Dead cells were clearly identified during the time lapse microscopy due to their non specific Etd uptake (not inhibited by hemichannel blockers) and were not quantified.

[12] = biological target: T1, Panx1 hemichannels; assay: Etd uptake in CD4+ T lymphocytes induced by chemokines or gp120; format: cell-based; parameters: endogenous in cells; host or cells: primary human PBMCs and purified CD4+ T lymphocytes from leukopacks (New York Blood Center); conditions: gp120 1 μg/ml, 5 min
Protocol: as §4

[13] = biological target: T1, Panx1 hemichannels; assay: HIV-induced Etd uptake in CD4+ T lymphocytes by flow cytometry (FACS); format: cell-based; parameters: endogenous in cells; host or cells: primary human PBMCs and purified CD4+ T lymphocytes from leukopacks (New York Blood Center); conditions: HIVADA, 5 min and 72 h
Protocol: Flow cytometry. To measure Etd uptake in CD4+ T cell populations FACS analysis was performed of cells under control conditions or after HIV exposure at several time points. Etd uptake experiments were performed in CD4+ lymphocytes (3-5×10^5), and after the respective time of Etd uptake, cells were fixed with 2% paraformaldehyde for 30 min at room temperature, incubated with 1% BSA in PBS for 30 min and stained with CD4 antibody for 30 min at 4° C. For analyses of Etd positive populations, 10,000 events were acquired on a BD FACS Canto II and analyzed using FlowJo (Ashland, Oreg.) software as we previously described (17, 20).

T1 sequence (Q96RD7 whole entry): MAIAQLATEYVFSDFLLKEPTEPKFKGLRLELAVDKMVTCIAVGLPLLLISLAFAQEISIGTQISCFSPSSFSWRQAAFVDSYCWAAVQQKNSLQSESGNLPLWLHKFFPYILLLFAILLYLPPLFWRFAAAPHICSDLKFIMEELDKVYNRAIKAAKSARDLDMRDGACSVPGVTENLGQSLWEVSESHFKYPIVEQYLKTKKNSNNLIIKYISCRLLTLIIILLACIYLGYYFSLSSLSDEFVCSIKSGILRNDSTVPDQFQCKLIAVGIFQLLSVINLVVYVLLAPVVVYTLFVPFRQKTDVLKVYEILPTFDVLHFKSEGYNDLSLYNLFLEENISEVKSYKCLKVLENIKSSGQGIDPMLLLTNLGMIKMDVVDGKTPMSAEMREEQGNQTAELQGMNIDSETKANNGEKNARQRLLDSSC

CCOc1ccc(Nc2ccc(/C(=C3C=C/C(=[N+](/CC)Cc4cccc(S(=O)(=O)[O-])c4)C=C/3C)c3ccc(N(CC)Cc4cccc(S(=O)(=O)[O-])c4)cc3C)cc2)cc1.[Na+] [BBG, brilliant blue G]
inhibition of viral replication relative to cultures infected with HIV only [1]: 54-90% | cell viability (live/dead assay) [2]: None of the antagonist caused any decrease in cell viability | recovery after spinal cord injury ([3]; rat model of traumatic spinal cord injury, reference 75): recovery of motor function and limited inflammation following spinal cord injury | toxicity in vivo ([3]; rat, in vivo): without any toxicity

Nc1ncnc2c1ncn2[C@@H](C=O)O[C@@H](C=O)COP(=O)(O)OP(=O)(O)OP(=O)(O)O [oATP, oxidized ATP]
effect on HIVADA p24 production ([4]; 1 μM oATP, N=5): no effect | inhibition of HIVADA p24 production relative to HIV only ([4]; 10 μM oATP, depending upon d.p.i., N=5): 50-85% | HIVADA replication reduced (HIV p24) relative to HIV only ([4]; 100 μM oATP, depending upon the d.p.i., up to 7 d.p.i., N=10): 92-99% | HIVBaL replication reduced relative to HIV only [5]: 89-97% | HIVYU-2 replication reduced relative to HIV only [6]: over 99% | cell viability (live/dead assay) [2]: None of the antagonist caused any decrease in cell viability; also recorded: did not reduce cell viability | decrease in the percentage of HIV p24 positive cells ([7]; 20 ng/ml HIVADA, N=3): 92% | multinucleated giant cells in cultures ([7]; HIVADA, compared to HIV infected cultures): very few multinucleated giant cells were detected | reduction in viral entry (percentage of cells with viral entry) relative to HIV only [8]: 57% | onset of diabetes and inflammatory bowel disease [9]: can prevent the onset of diabetes and inflammatory bowel disease

FADRYWAQVS (scrambled peptide) [scrPanx1]
HIV replication (HIV-p24 release into the media) [10]: did not alter | Etd uptake (rate) induced by the virus [11]: did not affect | gp120-induced Etd uptake, in presence of blockers [12]: No effects

WRQAAFVDSY (Panx1 mimetic blocking peptide) [10Panx1]
HIV replication (HIV-p24 release into the media) [10]: abolished HIV replication to almost control undetectable levels; also recorded: dramatically reduced | Etd uptake (rate) induced by the virus [11]: completely blocked; also recorded: completely reduced | Etd uptake induced by the virus, analyzed by FACS [13]: reduced Etd uptake; also recorded: reduced to control conditions (100%) | gp120-induced Etd uptake, in presence of blockers [12]: inhibited
